Laboratory results reported in ChEMBL document CHEMBL6078657, “Thiazolidinedione-based structure modification of ergosterol peroxide provides thiazolidinedione-conjugated derivatives as potent agents against breast cancer cells through a PI3K/AKT/mTOR pathway” (Bioorg Med Chem, 2025).

Assays:
A549 = assay: Antiproliferative activity against human A549 cells assessed as cell viability measured after 48 hrs incubation by MTT assay; assay type: functional, cell-based; conditions: A549, 48 h
HepG2 = assay: Antiproliferative activity against human HepG2 cells assessed as cell viability measured after 48 hrs incubation by MTT assay; assay type: functional, cell-based; conditions: HepG2, 48 h
MCF7 = assay: Antiproliferative activity against human MCF7 cells assessed as cell viability measured after 48 hrs incubation by MTT assay; assay type: functional, cell-based; conditions: MCF7, 48 h
[1] = Antiproliferative activity against human MCF-10A cells assessed as cell viability measured after 48 hrs incubation by MTT assay; assay type: toxicity, cell-based
[2] = Selectivity index, ratio of IC50 for human MCF-10A cells to IC50 for human MCF7 cells; assay type: toxicity; conditions: MCF-10A cells and MCF7 cells, read-out: Selectivity Index

Compound | IC50 (A549) | IC50 (HepG2) | IC50 (MCF7) | IC50 at 48 h [1] | selectivity ratio [2]
CC(C)[C@@H](C)/C=C/[C@@H](C)[C@H]1CC[C@@H]2[C@]1(C)CC[C@H]1[C@]23C=C[C@]2(C[C@@H](OC(=O)NCCNC(=O)CN4C(=O)S/C(=C\c5ccc(Cl)cc5)C4=O)CC[C@]12C)OO3 | 8.91 µM | 8.92 µM | 5.9 µM | 28.9 µM | 4.9
CC(C)[C@@H](C)/C=C/[C@@H](C)[C@H]1CC[C@@H]2[C@]1(C)CC[C@H]1[C@]23C=C[C@]2(C[C@@H](OC(=O)NCCNC(=O)CN4C(=O)S/C(=C\C5CC5)C4=O)CC[C@]12C)OO3 | 3.32 µM | 6.02 µM | 5.49 µM | 35.9 µM | 6.55
CC(C)[C@@H](C)/C=C/[C@@H](C)[C@H]1CC[C@@H]2[C@]1(C)CC[C@H]1[C@]23C=C[C@]2(C[C@@H](OC(=O)N4CCN(C(=O)CN5C(=O)S/C(=C\c6ccccc6F)C5=O)CC4)CC[C@]12C)OO3 | 6.95 µM | 10.8 µM | 15.8 µM | – | –
CC(C)[C@@H](C)/C=C/[C@@H](C)[C@H]1CC[C@@H]2[C@]1(C)CC[C@H]1[C@]23C=C[C@]2(C[C@@H](OC(=O)CN4C(=O)S/C(=C/c5ccccc5)C4=O)CC[C@]12C)OO3 | 13.7 µM | 17.6 µM | 12.5 µM | – | –
CC(C)[C@@H](C)/C=C/[C@@H](C)[C@H]1CC[C@@H]2[C@]1(C)CC[C@H]1[C@]23C=C[C@]2(C[C@@H](OC(=O)CN4C(=O)S/C(=C/c5ccccc5F)C4=O)CC[C@]12C)OO3 | 11.4 µM | 12.5 µM | 14.4 µM | – | –
COc1ccc(/C=C2\SC(=O)N(CC(=O)NCCNC(=O)O[C@H]3CC[C@]4(C)[C@H]5CC[C@]6(C)[C@@H]([C@H](C)/C=C/[C@H](C)C(C)C)CC[C@H]6[C@@]56C=C[C@]4(C3)OO6)C2=O)cc1OC | 8.54 µM | 6.18 µM | 5.33 µM | 20.8 µM | 3.89
CC(C)[C@@H](C)/C=C/[C@@H](C)[C@H]1CC[C@@H]2[C@]1(C)CC[C@H]1[C@]23C=C[C@]2(C[C@@H](OC(=O)N4CCN(C(=O)CN5C(=O)CSC5=O)CC4)CC[C@]12C)OO3 | 4.82 µM | 8.97 µM | 6.37 µM | – | –
CC(C)[C@@H](C)/C=C/[C@@H](C)[C@H]1CC[C@@H]2[C@]1(C)CC[C@H]1[C@]23C=C[C@]2(C[C@@H](OC(=O)N4CCN(C(=O)CN5C(=O)S/C(=C\c6ccc(F)c(Cl)c6)C5=O)CC4)CC[C@]12C)OO3 | 12.5 µM | 13.7 µM | 15.2 µM | – | –
CC(C)[C@@H](C)/C=C/[C@@H](C)[C@H]1CC[C@H]2C3=CC=C4C[C@@H](OC(=O)NCCNC(=O)CN5C(=O)S/C(=C\c6cccc7ccccc67)C5=O)CC[C@]4(C)[C@H]3CC[C@]12C | > 80 µM | > 80 µM | > 80 µM | – | –
CC(C)[C@@H](C)/C=C/[C@@H](C)[C@H]1CC[C@@H]2[C@]1(C)CC[C@H]1[C@]23C=C[C@]2(C[C@@H](OC(=O)CN4C(=O)S/C(=C/c5ccc(F)cc5)C4=O)CC[C@]12C)OO3 | 11.7 µM | 14.7 µM | 16.1 µM | – | –
COc1ccc(/C=C2\SC(=O)N(CC(=O)N3CCN(C(=O)O[C@H]4CC[C@]5(C)[C@H]6CC[C@]7(C)[C@@H]([C@H](C)/C=C/[C@H](C)C(C)C)CC[C@H]7[C@@]67C=C[C@]5(C4)OO7)CC3)C2=O)cc1OC | 7.75 µM | 21.5 µM | 13.6 µM | – | –
CC(C)[C@@H](C)/C=C/[C@@H](C)[C@H]1CC[C@@H]2[C@]1(C)CC[C@H]1[C@]23C=C[C@]2(C[C@@H](OC(=O)NCCNC(=O)CN4C(=O)S/C(=C\c5ccc(F)cc5)C4=O)CC[C@]12C)OO3 | 9.17 µM | 13.3 µM | 11.6 µM | – | –
COc1ccc(/C=C2/SC(=O)N(CC(=O)O[C@H]3CC[C@]4(C)[C@H]5CC[C@]6(C)[C@@H]([C@H](C)/C=C/[C@H](C)C(C)C)CC[C@H]6[C@@]56C=C[C@]4(C3)OO6)C2=O)c(OC)c1OC | 9.1 µM | 10.9 µM | 9.66 µM | – | –
CC(C)[C@@H](C)/C=C/[C@@H](C)[C@H]1CC[C@@H]2[C@]1(C)CC[C@H]1[C@]23C=C[C@]2(C[C@@H](OC(=O)N4CCN(C(=O)CN5C(=O)S/C(=C\c6ccc(Cl)cc6)C5=O)CC4)CC[C@]12C)OO3 | 5.94 µM | 9.58 µM | 8.94 µM | – | –
CC(C)/C=C1\SC(=O)N(CC(=O)N2CCN(C(=O)O[C@H]3CC[C@]4(C)[C@H]5CC[C@]6(C)[C@@H]([C@H](C)/C=C/[C@H](C)C(C)C)CC[C@H]6[C@@]56C=C[C@]4(C3)OO6)CC2)C1=O | 7.69 µM | 10.5 µM | 8.89 µM | – | –
COc1ccc(/C=C2\SC(=O)N(CC(=O)NCCNC(=O)O[C@H]3CC[C@]4(C)[C@H]5CC[C@]6(C)[C@@H]([C@H](C)/C=C/[C@H](C)C(C)C)CC[C@H]6[C@@]56C=C[C@]4(C3)OO6)C2=O)c(OC)c1OC | 5.08 µM | 5.77 µM | 4.26 µM | 30.1 µM | 7.07
CC(C)[C@@H](C)/C=C/[C@@H](C)[C@H]1CC[C@@H]2[C@]1(C)CC[C@H]1[C@]23C=C[C@]2(C[C@@H](OC(=O)CN4C(=O)S/C(=C/c5cccc6ccccc56)C4=O)CC[C@]12C)OO3 | 10.3 µM | 6.08 µM | 14.7 µM | – | –
COc1cccc(/C=C2\SC(=O)N(CC(=O)N3CCN(C(=O)O[C@H]4CC[C@]5(C)[C@H]6CC[C@]7(C)[C@@H]([C@H](C)/C=C/[C@H](C)C(C)C)CC[C@H]7[C@@]67C=C[C@]5(C4)OO7)CC3)C2=O)c1 | 10.1 µM | 12.7 µM | 14.3 µM | – | –
CC(C)[C@@H](C)/C=C/[C@@H](C)[C@H]1CC[C@@H]2[C@]1(C)CC[C@H]1[C@]23C=C[C@]2(C[C@@H](OC(=O)N4CCN(C(=O)CN5C(=O)S/C(=C\c6ccccc6)C5=O)CC4)CC[C@]12C)OO3 | 6.05 µM | 9.71 µM | 8.48 µM | – | –
CC(C)[C@@H](C)/C=C/[C@@H](C)[C@H]1CC[C@@H]2[C@]1(C)CC[C@H]1[C@]23C=C[C@]2(C[C@@H](OC(=O)NCCNC(=O)CN4C(=O)S/C(=C\c5ccc(Br)cc5)C4=O)CC[C@]12C)OO3 | 7.9 µM | 7.34 µM | 4.39 µM | 45.3 µM | 10.3
COc1ccc(/C=C2\SC(=O)N(CC(=O)N3CCN(C(=O)O[C@H]4CC[C@]5(C)[C@H]6CC[C@]7(C)[C@@H]([C@H](C)/C=C/[C@H](C)C(C)C)CC[C@H]7[C@@]67C=C[C@]5(C4)OO7)CC3)C2=O)cc1 | 6.24 µM | 8.85 µM | 13.7 µM | – | –
CC(C)[C@@H](C)/C=C/[C@@H](C)[C@H]1CC[C@@H]2[C@]1(C)CC[C@H]1[C@]23C=C[C@]2(C[C@@H](OC(=O)NCCNC(=O)CN4C(=O)S/C(=C\c5ccccc5)C4=O)CC[C@]12C)OO3 | 11.4 µM | 7.95 µM | 6.8 µM | 41.6 µM | 6.12
COc1ccc(/C=C2/SC(=O)N(CC(=O)O[C@H]3CC[C@]4(C)[C@H]5CC[C@]6(C)[C@@H]([C@H](C)/C=C/[C@H](C)C(C)C)CC[C@H]6[C@@]56C=C[C@]4(C3)OO6)C2=O)cc1OC | 15.2 µM | 18 µM | 13.6 µM | – | –
Cc1ccc(/C=C2\SC(=O)N(CC(=O)NCCNC(=O)O[C@H]3CC[C@]4(C)[C@H]5CC[C@]6(C)[C@@H]([C@H](C)/C=C/[C@H](C)C(C)C)CC[C@H]6[C@@]56C=C[C@]4(C3)OO6)C2=O)cc1 | 7.18 µM | 6.82 µM | 4.71 µM | 24.1 µM | 5.11
COc1ccc(/C=C2\SC(=O)N(CC(=O)N3CCN(C(=O)O[C@H]4CC[C@]5(C)[C@H]6CC[C@]7(C)[C@@H]([C@H](C)/C=C/[C@H](C)C(C)C)CC[C@H]7[C@@]67C=C[C@]5(C4)OO7)CC3)C2=O)c(OC)c1OC | 5.17 µM | 9.75 µM | 8.96 µM | – | –
CC(C)[C@@H](C)/C=C/[C@@H](C)[C@H]1CC[C@@H]2[C@]1(C)CC[C@H]1[C@]23C=C[C@]2(C[C@@H](OC(=O)N4CCN(C(=O)CN5C(=O)S/C(=C\c6ccc(Cl)cc6Cl)C5=O)CC4)CC[C@]12C)OO3 | 11.7 µM | 15.6 µM | 12.9 µM | – | –
CC(C)[C@@H](C)/C=C/[C@@H](C)[C@H]1CC[C@@H]2[C@]1(C)CC[C@H]1[C@]23C=C[C@]2(C[C@@H](OC(=O)CN4C(=O)S/C(=C/c5ccc(Cl)cc5Cl)C4=O)CC[C@]12C)OO3 | 11 µM | 13.1 µM | 10.2 µM | – | –
